Experimental data published in PubChem BioAssay (NCI).
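48-hour exposure; five concentrations; linearly interpolated endpoints. Abbreviation: GI50, concentration required for 50% inhibition of growth. The concentration for full growth arrest is given as TGI.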

Key:
Test in all cases: NCI-60 cell line screen, 48 h
DMS 114 small cell lung = tested on: DMS 114 small cell lung
SNB-78 CNS = tested on: SNB-78 CNS
LXFL 529 NSCLC = tested on: LXFL 529 NSCLC
M19-MEL melanoma = tested on: M19-MEL melanoma
DMS 273 small cell lung = tested on: DMS 273 small cell lung
XF 498 CNS = tested on: XF 498 CNS
DLD-1 colon = tested on: DLD-1 colon
KM20L2 colon = tested on: KM20L2 colon

Structure (SMILES) | TGI (DMS 114 small cell lung) [µM] | TGI (SNB-78 CNS) [µM] | TGI (LXFL 529 NSCLC) [µM] | TGI (M19-MEL melanoma) [µM] | TGI (DMS 273 small cell lung) [µM] | TGI (XF 498 CNS) [µM] | TGI (DLD-1 colon) [µM] | TGI (KM20L2 colon) [µM] | GI50 (SNB-78 CNS) [µM] | GI50 (LXFL 529 NSCLC) [µM] | GI50 (KM20L2 colon) [µM]
c1nc(N2CC2)c2cnn(C3CCCCO3)c2n1 (configuration not stated) | > 100 | > 100 | > 100 | > 100 | > 100 | > 100 | > 100 | > 100 |  |  | 
[Cl-].[Rh+3].c1cnc2c(c1)ccc1cccnc12.c1cnc2c(c1)ccc1cccnc12.c1cnc2c(c1)ccc1cccnc12 |  | > 100 | > 100 |  |  |  |  | > 100 | > 100 | > 100 | > 100
CCOC(=O)NC(=O)c1cn(CCNCCO)c(=O)[nH]c1=O | > 100 | > 100 | > 100 | > 100 |  | > 100 | > 100 |  |  |  | 
O=C(N/N=C/C=C/c1ccccc1)[C@H](O)[C@@H](O)C(=O)N/N=C/C=C/c1ccccc1 | > 100 | > 100 | > 100 | > 100 | > 100 |  | > 100 | > 100 |  |  | 
